Reference: article PMC5628579, “Potent mechanism-based sirtuin-2-selective inhibition by an in situ-generated occupant of the substrate-binding site, “selectivity pocket” and NAD^+-binding site” (Chemical Science, 2017)

Experiment: HPLC stability under SIRTs assay conditions
Assay type: physicochemical
Details: buffer pH 8.0, 30 °C, 0–200 min
Protocol: HPLC stability of 36 under SIRTs assay conditions
Compound 36 (10 μL, 0.5 mM) in DMSO/buffer (50 mM Tris/HCl, pH = 8.0, 137 mM NaCl, 2.7 mM KCl, 1 mM MgCl2) was added to selected wells, followed by 40 μL of buffer (50 mM Tris/HCl, pH = 8.0, 137 mM NaCl, 2.7 mM KCl, 1 mM MgCl2). The obtained solution was incubated at 30 °C and 250 rpm for 0, 50, 100, 150, and 200 min. At the end of each incubation time, the wells were diluted with CH3CN (50 μL, HPLC grade). The entire volume (100 μL) was transferred to a Cosmospin filter H (0.45 μm) and 20 μL of the filtrate were injected in the HPLC instrument. Column:
(90%), 30–40 min (90–10%). The peak area was determined at 220 nm. […]

Structure (SMILES): C[C@H](NC(=O)[C@H](CCCCNC(=S)CNC(=O)c1ccccc1Nc1cccc(OCCc2ccccc2)c1)NC(=O)OCc1ccccc1)C(N)=O [Compound 36]
- HPLC stability under SIRTs assay conditions: stable
